Reference: patent US5814627A, “3, 5-disubstituted and 3, 4, 5-trisubstituted 2-isoxazolines and isoxazoles, process for their preparation and their use as pharmaceuticals” (Hoechst Aktienegesellschaft, priority 1994, dated 1998)
Counter-ions that a name gives are not always drawn. Values belong to the compound of their own block, whether it stands above or below them.

Key:
[1] = test system: cyclooxygenase-dependent thrombocyte aggregation; test: Test 5: Cyclooxygenase-dependent thrombocyte aggregation; format: cell-based, human; conditions: Homo sapiens, arachidonic acid as inducer, read-out: Test 5 residual activity (cyclooxygenase-dependent thrombocyte aggregation), percent of control
Description: TEST 5. Cyclooxygenase-dependent thrombocyte aggregation
Platelet-rich plasma (PRP): to inhibit coagulation, human blood was treated with 1/10 of its volume of 3.8% sodium citrate solution. Centrifugation then takes place at 105×g for 20 minutes and the supernatant (PRP) is removed. 200 μl of PRP were preincubated, at 37° C. for 10 minutes, together with 30 μl of test substance in a PAP4 aggregometer (BioData). The test substance was dissolved in organic solvent and diluted 1:30 with buffer (50 mM TisHCl, pH 8.0; 90 mM NaCl). Aggregation is triggered with 20 μl of inducer. During the aggregation, stirring takes place at 800 rpm. Arachidonic acid, 5 mg/ml, was used as the inducer.
(§1) The values in the table show the concentration of the test substance which was employed in μM and, besides this, the residual activity measured in percent based on the control, which was set to be 100%. The interleukin is additionally indicated in test 4.

adjuvant/arthritis model = test: Test 6: antiarthritic effect in the adjuvant/arthritis model; format: in vivo, rat (Wistar-Lewis); conditions: Rattus norvegicus, po, 408 h, daily for 17 days, rat, read-out: Test 6 Paw volume (% inhibition); for inhibition in vivo at 25 mg/kg: 25 mg/kg orally; for inhibition in vivo at 50 mg/kg: 50 mg/kg orally
Description: Male rats of a Wistar-Lewis strain (Mollegaard/Denmark) were used as experimental animals. The body weight is between 160 and 200 g. Subplantar injection of 0.1 ml of Freund's adjuvant (=6 mg of Mycobacterium butyricum suspension, Difco Lab./Detroit, Mich. USA, per ml of heavy white paraffin oil, Merck, Darmstadt) into the root of the tail resulted, on the 10th to 14th day of the experiment, in immunopathological processes and chronic inflammations, particularly in the form of arthritic and periarthritic symptoms, at other sites in the body (secondary lesions). The animals were fed ad libitum with the standard feed Altromin-R, from Altrogge, Lage, and provided with tap water. The animals were given 60 mg of codein per kg as an analgesic from the 14th day to the end of the experiment. The test substances were administered orally as a CMC suspension, in an injection volume of 1 ml/100 g of body weight, on each day (in all for 17 days), beginning on the day of the adjuvant administration. The volumes of each of the hind paws, and the body weight, were measured on the first and on the 18th day of the experiment. Diminution in the increase of paw volume, as compared with the untreated control group, served as the criterion of activity, with the two hind paws being averaged.

[2] = test system: PAF-induced asthma attack; test: Test 7: antiasthmatic effect, PAF-induced asthma attack; format: in vivo; conditions: Cavia porcellus; i.d., 15 minutes before PAF; guinea pig
Description: Test 7: Testing for antiasthmatic effect
Anesthetized guinea pigs, which were cannulated in the jugular vein to allow injection of the PAF, were used for testing for antiasthmatic effect. The test preparations were also administered intravenously (i.v.), 5 min before PAF administration, into the blood stream through the same venous cannula, or else administered intraduodenally (i.d.), 15 minutes before the PAF, through an opening in the duodenum which had been installed and cannulated surgically. The bronchial width was recorded in an overflow pneumonogram before and after administering the preparation. Evaluation: ED50 in mg/kg i.d. as compared with the PAF-induced asthma attack.

[3] = test system: tumor cell line 20-10-5S (hybridoma cell line); test: Test 8: Inhibition of tumor cell proliferation; format: cell-based; conditions: 48 h + 16 h tritiated thymidine incorporation; 20-10-5S cells
[4] = test system: leukotriene B4 synthesis in white blood cells; test: Test 3: LTB4 formation by white blood cells; format: cell-based; conditions: Homo sapiens, read-out: Test 3 residual activity (LTB4 formation), percent of control
Description: TEST 3. LTB4 formation by white blood cells
Isolation of white blood cells:
40 ml of human blood were mixed with 8 ml of 6% dextran solution (dextran, mw: 480,000 in PM16). After one hour at room temperature, the supernatant,which was composed of white blood cells, was removed, diluted with an equal volume of PM16, and centrifuged for 15 minutes at 300×g (1600 rpm). The sediment was next resuspended in approximately 5-6 ml of PM16 and, once the cell count had been determined in a Coulter Counter, adjusted to 10^7 cells/ml.
The test mixture comprised 0.24 ml of cell suspension, 0.03 ml of 20 mM CaCl2 /5 mM MgCl2 and 5 μl of test substance. Following 15 minutes of preincubation at 37° C., the reaction was started with 0.03 ml of A23187/glutathione (100 μg of A23187/ml; 15.4 μg of glutathione/ml). The incubation was terminated after 5 minutes at 37° C. by immediate cooling of the samples down to 0° C. After centrifuging for 2 minutes in an Eppendorff Centrifuge (0° C.), the supernatant was removed and examined chromatographically.
High pressure liquid chromatography (HPLC): the HPLC equipment comprises a Kratos pump (Spectro-flow 400), a cooled automatic BT 7041 sample injector (Biotronik) having a 75 μl sample loop, a Nucleosil C18 column (100*3 mm, 5 μm particles of Chrompack), a UV detector (Kratos) Spectroflow 757 (wavelength: 280 nm, measurement range: 0.1 AUFS, time constant: 0.5 s) and a Spectra Physics integrator (SP 4270). The eluent (725 ml of methanol, 275 ml of water and 0.1 ml of acetic acid) was supplied at a flow rate of 0.7 ml/minute and at a pressure of about 100 bar.
When doing this, the measurement range which has been set can be examined and altered if necessary. It is also vital to measure the test substances at the particular test concentration (e.g.: 10^-5 M) in PM16 before the cell incubation, since the test substances might conceal the LTB4 peak. If this is the case, a lower concentration must be selected.
as §1

[5] = test system: polymorphonuclear leucocytes (PMNL); test: Test 2: Release of oxygen radicals from human PMNL; format: cell-based; conditions: read-out: Test 2 residual activity (release of oxygen radicals), percent of control
Description: Isolation of polymorphonuclear leucocytes (PMNL) from human peripheral blood for carrying out tests 1 and 2 10 ml of human blood were diluted with 10 ml of HBSS (Serva) and underlaid with 15 ml of Lymphoprep (Dr. Molter GmbH, Heidelberg). The sample was then centrifuged for 25 minutes at 400×g (1600 revolutions per minute, Minifuge 2, Heraeus, Osterode). […] A white ring, composed of mononuclear cells, is located between these two phases. The lowermost phase is composed of erythrocytes which are covered with a white layer of PMNL. The uppermost phase, and also the Lymphoprep and the white ring, were carefully removed using a syringe. The remaining sediment was carefully resuspended in 15 ml of 3% dextran in PM16 (mw: 485,000, Sigma, Deisenhofen). The suspension was then left to stand at room temperature for one hour. During this time, the erythrocytes sedimented while the PMNL remained in the supernatant. The supernatant was removed, diluted with an approximately equal volume of PM16, and centrifuged for 15 minutes at 400×g. Should the PMNL sediment be heavily contaminated with erythrocytes, it is necessary to carry out a hypotonic lysis. To do this, the sediment was resuspended in 750 μl of water. After exactly 15 seconds, the suspension was diluted with approximately 7 ml of PM16 and centrifuged for 10 minutes at 400×g. If necessary, this lysis was repeated once more. Otherwise, the PMNL sediment was resuspended in a suitable medium.
The PMNL were resuspended (5·10^6 cells/ml) in Dulbecco's PBS, supplemented with 7.5 mM glucose. Care must be taken to ensure that the PMNL are free of erythrocytes. 100 μl of PMNL, 700 μl of PBS+glucose and 100 μl of cytochrome C (9.38 mg/ml of PBS+glucose) were mixed in a semi-microcuvette. 100 μl of PMNL, 500 μl of PBS+glucose, 100 μl of cytochalasin B ([…]), 100 μl of TNF (0.05 ng) and 100 μl of cytochrome C (9.38 mg/ml of PBS+glucose) were mixed for the fMLP-induced release of oxygen. Measurements were made in a double-beam photometer meter (Perkin-Elmer 552 S) at a wavelength of 550 nm. The measurement range is 0-1 extinction units. The cuvettes were temperature-equilibrated to 37° C. The reference cuvette additionally contained 10 μl of SOD (6 mg of SOD/ml of PBS+glucose). Following a preincubation of 5 minutes, the reaction is started with 100 μl of inducer. The reaction is started with 1·10^-7 mol of fMLP.
as §1

IC50 [3]: < 5 µM
Compound: C[C@H](O)[C@@H]1CC(c2cc(C(C)(C)C)c(O)c(C(C)(C)C)c2)=NO1 (relative stereo) [Example 20]
activity at 10 µM [1]: 100%
inhibition in vivo at 25 mg/kg (adjuvant/arthritis model): 67%
ED50 [2]: ~50 mg/kg

IC50 [3]: 5 to 10 µM
Compound: CC(C)(C)c1cc(C2=NOC(CO)C2)cc(C(C)(C)C)c1O (stereo not shown) [Example 1, 3-(4-Hydroxy-3,5-di-tert-butylphenyl)-5-hydroxymethyl-2-isoxazoline]
activity at 10 µM [4]: 92%
activity at 10 µM [1]: 93%
inhibition in vivo at 50 mg/kg (adjuvant/arthritis model): 70%
ED50 [2]: 10 to 50 mg/kg

IC50 [3]: < 5 µM
Compound: CC(C)(C)c1cc(C2=NOC(c3ccsc3)C2)cc(C(C)(C)C)c1O (stereo not shown) [Example 8]
activity at 1 µM ([4]; 1 μM): 93%
activity at 10 µM [4]: 15%
activity at 100 µM [1]: 91%
inhibition in vivo at 50 mg/kg (adjuvant/arthritis model): 67%
ED50 [2]: ~10 mg/kg

IC50 [3]: 5 to 10 µM
Compound: CC(C)(C)c1cc(-c2cc(CN)on2)cc(C(C)(C)C)c1O [Example 48]
inhibition in vivo at 50 mg/kg (adjuvant/arthritis model): 60%
ED50 [2]: 10 to 50 mg/kg

IC50 [3]: 8 to 10 µM
Compound: C/C(O)=C(\C#N)C(=O)NCc1cc(-c2cc(C(C)(C)C)c(O)c(C(C)(C)C)c2)no1 [Example 53, 2-Cyano-3-hydroxybut-2-enecarboxylic acid(3-(4-hydroxy-3,5-di-tert-butylphenyl)isoxazol-5-ylmethyl)amide]
inhibition in vivo at 25 mg/kg (adjuvant/arthritis model): 48%
ED50 [2]: 10 to 50 mg/kg

Further lines, the compound ahead of its results:

Compound: COP(=O)(OC)C1CC(c2cc(C(C)(C)C)c(O)c(C(C)(C)C)c2)=NO1 (stereo not shown) [Example 5]
activity at 100 µM [1]: 98%
ED50 [2]: < 10 mg/kg

Compound: CC(C)(C)c1cc(C2=NOC(P(=O)(O)O)C2)cc(C(C)(C)C)c1O (stereo not shown) [Example 6, 3-(4-Hydroxy-3,5-di-tert-butylphenyl)-2-isoxazolin-5-ylphosphonic acid]
ED50 [2]: ~50 mg/kg

Compound: COP(=O)(O)C1CC(c2cc(C(C)(C)C)c(O)c(C(C)(C)C)c2)=NO1 (stereo not shown) [Example 7, Monomethyl 3-(4-hydroxy-3,5-di-tert-butylphenyl)-2-isoxazolin-5-ylphosphonate]
activity at 100 µM [1]: 95%
ED50 [2]: 10 to 30 mg/kg

Compound: Cc1cc(CNC(=O)C2(C)CC(c3cc(C(C)(C)C)c(O)c(C(C)(C)C)c3)=NO2)cc(C)c1O (stereo not shown) [Example 14]
activity at 10 µM [1]: 100%
ED50 [2]: 10 to 50 mg/kg

Compound: CC(C)(OCc1cc(-c2cc(C(C)(C)C)c(O)c(C(C)(C)C)c2)no1)C(=O)O [Example 36, 2-(3-(4-Hydroxy-3,5-di-tert-butylphenyl)isoxazol-5-ylmethoxy)-2-methylpropionic acid]
activity at 10 µM [4]: 93%
activity at 100 µM [1]: 87%

Compound: CC(C)(C)c1cc(-c2cc(COC(=O)NCC(=O)O)on2)cc(C(C)(C)C)c1O [Example 40, N-(3-(4-Hydroxy-3,5-di-tert-butylphenyl)isoxazol-5-ylmethoxycarbonyl)glycine]
ED50 [2]: 1 to 3 mg/kg
IC50 [3]: < 5 µM

Compound: CC(C)(C)c1cc(-c2cc(CCOC(=O)NCC(=O)O)on2)cc(C(C)(C)C)c1O [Example 43, N-(2-(4-Hydroxy-3,5-di-tert-butylphenyl)isoxazol-5-ylethoxycarbonyl)glycine]
activity at 10 µM [4]: 93%
activity at 100 µM [1]: 99%

Compound: Cc1oncc1C(=O)NCc1cc(-c2cc(C(C)(C)C)c(O)c(C(C)(C)C)c2)no1 [Example 52]
ED50 [2]: 3 to 10 mg/kg
IC50 [3]: < 5 µM

Compound: CCOC(=O)CNC(=O)NCc1cc(-c2cc(C(C)(C)C)c(O)c(C(C)(C)C)c2)no1 [Example 54, Ethyl (3-(3-(4-hydroxy-3,5-di-tert-butylphenyl)isoxazol-5-ylmethyl)ureido) acetate]
ED50 [2]: 1 to 3 mg/kg
IC50 [3]: 5 to 10 µM

Compound: CC(C)(C)c1cc(-c2cc(CNC(=O)NCC(=O)O)on2)cc(C(C)(C)C)c1O [Example 56, (3-(3-(4-Hydroxy-3,5-di-tert-butylphenyl)isoxazol-5-ylmethyl)ureido)acetic acid]
ED50 [2]: ~50 mg/kg

Compound: CC(OC(=O)[C@@H](N)Cc1ccccc1)c1cc(-c2cc(C(C)(C)C)c(O)c(C(C)(C)C)c2)no1 (stereo partly drawn) [Example 70, L-Phenylalanine-1-(3-(4-hydroxy-3,5-di-tert-butylphenyl)isoxazol-5-yl)ethylester hydrochloride]
activity at 10 µM [5]: 22%
inhibition in vivo at 25 mg/kg (adjuvant/arthritis model): 59%
IC50 [3]: 5 µM

Compound: CC(OC(=O)[C@@H](N)Cc1ccccc1)C1CC(c2cc(C(C)(C)C)c(O)c(C(C)(C)C)c2)=NO1 (stereo partly drawn) [Example 73, L-Phenylalanine-1-(3-(4-hydroxy-3,5-di-tert-butylphenyl)-2-isoxazolin-5-yl)ethyl ester hydrochloride]
activity at 1 µM ([5]; 1 μM): 100%
activity at 10 µM [5]: 9%
activity at 25 µM ([1]; 25 μM): 100%
inhibition in vivo at 50 mg/kg (adjuvant/arthritis model): 73%
